Measurements from the NIST ThermoML archive (doi:10.1016/j.tca.2016.03.002).
± gives the expanded uncertainty stated by the source.

Experiments:
[1] = xn = mol fraction of the nth substance listed; details: 100 kPa, Liquid; for viscosity: Capillary tube (Ostwald / Ubbelohde) method; for mass density: Vibrating tube method
[2] = relative permittivity at various frequencies (dimensionless); xn = mol fraction of the nth substance listed; details: 100 kPa, Liquid, Frequency=30 MHz, Parallel plate capacitor

## NC1CCCCC1 [cyclohexylamine] + CO
[1]; 293.15 K, x2 = 0
  viscosity: 2.142 ± 0.046 mPa·s
  mass density: 866.86 ± 2.1 kg/m3
[1]; 293.15 K, x2 = 0.0666
  viscosity: 2.16 ± 0.05 mPa·s
  mass density: 867.932 ± 2.1 kg/m3
[1]; 293.15 K, x2 = 0.1108
  viscosity: 2.17 ± 0.05 mPa·s
  mass density: 868.284 ± 2.1 kg/m3
[1]; 293.15 K, x2 = 0.2089
  viscosity: 2.18 ± 0.05 mPa·s
  mass density: 869.337 ± 2.1 kg/m3
[1]; 293.15 K, x2 = 0.3043
  viscosity: 2.19 ± 0.05 mPa·s
  mass density: 869.454 ± 2.1 kg/m3
[1]; 293.15 K, x2 = 0.4097
  viscosity: 2.16 ± 0.05 mPa·s
  mass density: 868.83 ± 2.1 kg/m3
[1]; 293.15 K, x2 = 0.4479
  viscosity: 2.13 ± 0.04 mPa·s
  mass density: 868.248 ± 2.1 kg/m3
[1]; 293.15 K, x2 = 0.493
  viscosity: 2.07 ± 0.04 mPa·s
  mass density: 867.202 ± 2.1 kg/m3
[1]; 293.15 K, x2 = 0.5478
  viscosity: 1.99 ± 0.04 mPa·s
  mass density: 865.137 ± 2.1 kg/m3
[1]; 293.15 K, x2 = 0.5961
  viscosity: 1.89 ± 0.04 mPa·s
  mass density: 862.688 ± 2.1 kg/m3
[1]; 293.15 K, x2 = 0.659
  viscosity: 1.7 ± 0.04 mPa·s
  mass density: 858.061 ± 2.1 kg/m3
[1]; 293.15 K, x2 = 0.7014
  viscosity: 1.56 ± 0.03 mPa·s
  mass density: 853.915 ± 2.1 kg/m3
[1]; 293.15 K, x2 = 0.798
  viscosity: 1.22 ± 0.03 mPa·s
  mass density: 841.114 ± 2 kg/m3
[1]; 293.15 K, x2 = 0.8992
  viscosity: 0.89 ± 0.02 mPa·s
  mass density: 820.891 ± 2 kg/m3
[1]; 293.15 K, x2 = 0.9503
  viscosity: 0.72 ± 0.02 mPa·s
  mass density: 807.371 ± 2 kg/m3
[1]; 298.15 K, x2 = 0
  viscosity: 1.908 ± 0.041 mPa·s
  mass density: 862.315 ± 2.1 kg/m3
[1]; 298.15 K, x2 = 0.0666
  viscosity: 1.92 ± 0.04 mPa·s
  mass density: 863.427 ± 2.1 kg/m3
[1]; 298.15 K, x2 = 0.1108
  viscosity: 1.93 ± 0.04 mPa·s
  mass density: 863.705 ± 2.1 kg/m3
[1]; 298.15 K, x2 = 0.2089
  viscosity: 1.94 ± 0.04 mPa·s
  mass density: 864.848 ± 2.1 kg/m3
[1]; 298.15 K, x2 = 0.3043
  viscosity: 1.94 ± 0.04 mPa·s
  mass density: 864.932 ± 2.1 kg/m3
[1]; 298.15 K, x2 = 0.4097
  viscosity: 1.91 ± 0.04 mPa·s
  mass density: 864.276 ± 2.1 kg/m3
[1]; 298.15 K, x2 = 0.4479
  viscosity: 1.88 ± 0.04 mPa·s
  mass density: 863.674 ± 2.1 kg/m3
[1]; 298.15 K, x2 = 0.493
  viscosity: 1.83 ± 0.04 mPa·s
  mass density: 862.605 ± 2.1 kg/m3
[1]; 298.15 K, x2 = 0.5478
  viscosity: 1.76 ± 0.04 mPa·s
  mass density: 860.518 ± 2.1 kg/m3
[1]; 298.15 K, x2 = 0.5961
  viscosity: 1.67 ± 0.04 mPa·s
  mass density: 858.069 ± 2.1 kg/m3
[1]; 298.15 K, x2 = 0.659
  viscosity: 1.52 ± 0.03 mPa·s
  mass density: 853.437 ± 2.1 kg/m3
[1]; 298.15 K, x2 = 0.7014
  viscosity: 1.4 ± 0.03 mPa·s
  mass density: 849.321 ± 2.1 kg/m3
[1]; 298.15 K, x2 = 0.798
  viscosity: 1.11 ± 0.02 mPa·s
  mass density: 836.513 ± 2 kg/m3
[1]; 298.15 K, x2 = 0.8992
  viscosity: 0.78 ± 0.02 mPa·s
  mass density: 816.251 ± 2 kg/m3
[1]; 298.15 K, x2 = 0.9503
  viscosity: 0.67 ± 0.02 mPa·s
  mass density: 802.691 ± 2 kg/m3
[1]; 303.15 K, x2 = 0
  viscosity: 1.697 ± 0.036 mPa·s
  mass density: 857.774 ± 2.1 kg/m3
[1]; 303.15 K, x2 = 0.0666
  viscosity: 1.71 ± 0.04 mPa·s
  mass density: 858.919 ± 2.1 kg/m3
[1]; 303.15 K, x2 = 0.1108
  viscosity: 1.71 ± 0.04 mPa·s
  mass density: 859.196 ± 2.1 kg/m3
[1]; 303.15 K, x2 = 0.2089
  viscosity: 1.72 ± 0.04 mPa·s
  mass density: 860.385 ± 2.1 kg/m3
[1]; 303.15 K, x2 = 0.3043
  viscosity: 1.72 ± 0.04 mPa·s
  mass density: 860.42 ± 2.1 kg/m3
[1]; 303.15 K, x2 = 0.4097
  viscosity: 1.69 ± 0.04 mPa·s
  mass density: 859.728 ± 2.1 kg/m3
[1]; 303.15 K, x2 = 0.4479
  viscosity: 1.66 ± 0.04 mPa·s
  mass density: 859.094 ± 2.1 kg/m3
[1]; 303.15 K, x2 = 0.4931
  viscosity: 1.62 ± 0.03 mPa·s
  mass density: 858.005 ± 2.1 kg/m3
[1]; 303.15 K, x2 = 0.5478
  viscosity: 1.56 ± 0.03 mPa·s
  mass density: 855.9 ± 2.1 kg/m3
[1]; 303.15 K, x2 = 0.5966
  viscosity: 1.48 ± 0.03 mPa·s
  mass density: 853.451 ± 2.1 kg/m3
[1]; 303.15 K, x2 = 0.659
  viscosity: 1.35 ± 0.03 mPa·s
  mass density: 848.818 ± 2 kg/m3
[1]; 303.15 K, x2 = 0.7014
  viscosity: 1.26 ± 0.03 mPa·s
  mass density: 844.723 ± 2 kg/m3
[1]; 303.15 K, x2 = 0.798
  viscosity: 1.04 ± 0.02 mPa·s
  mass density: 831.905 ± 2 kg/m3
[1]; 303.15 K, x2 = 0.8992
  viscosity: 0.75 ± 0.02 mPa·s
  mass density: 811.617 ± 2 kg/m3
[1]; 303.15 K, x2 = 0.9503
  viscosity: 0.62 ± 0.01 mPa·s
  mass density: 798.008 ± 2 kg/m3
[2]; 293.15 K, x2 = 0
  relative permittivity: 4.65 ± 0.09
[2]; 293.15 K, x2 = 0.0702
  relative permittivity: 5.34 ± 0.11
[2]; 293.15 K, x2 = 0.1177
  relative permittivity: 5.88 ± 0.12
[2]; 293.15 K, x2 = 0.2006
  relative permittivity: 7.01 ± 0.14
[2]; 293.15 K, x2 = 0.3049
  relative permittivity: 8.78 ± 0.18
[2]; 293.15 K, x2 = 0.4041
  relative permittivity: 10.87 ± 0.22
[2]; 293.15 K, x2 = 0.4986
  relative permittivity: 13.26 ± 0.27
[2]; 293.15 K, x2 = 0.5392
  relative permittivity: 14.55 ± 0.3
[2]; 293.15 K, x2 = 0.597
  relative permittivity: 16.28 ± 0.33
[2]; 293.15 K, x2 = 0.6609
  relative permittivity: 18.6 ± 0.38
[2]; 293.15 K, x2 = 0.6986
  relative permittivity: 19.95 ± 0.4
[2]; 293.15 K, x2 = 0.746
  relative permittivity: 21.72 ± 0.44
[2]; 293.15 K, x2 = 0.7997
  relative permittivity: 23.89 ± 0.48
[2]; 293.15 K, x2 = 0.8572
  relative permittivity: 26.33 ± 0.53
[2]; 293.15 K, x2 = 0.8985
  relative permittivity: 28.32 ± 0.57
[2]; 293.15 K, x2 = 0.949
  relative permittivity: 30.74 ± 0.62
[2]; 298.15 K, x2 = 0
  relative permittivity: 4.56 ± 0.09
[2]; 298.15 K, x2 = 0.0702
  relative permittivity: 5.23 ± 0.11
[2]; 298.15 K, x2 = 0.1177
  relative permittivity: 5.75 ± 0.12
[2]; 298.15 K, x2 = 0.2006
  relative permittivity: 6.84 ± 0.14
[2]; 298.15 K, x2 = 0.3049
  relative permittivity: 8.55 ± 0.17
[2]; 298.15 K, x2 = 0.4041
  relative permittivity: 10.58 ± 0.21
[2]; 298.15 K, x2 = 0.4986
  relative permittivity: 12.88 ± 0.26
[2]; 298.15 K, x2 = 0.5392
  relative permittivity: 14.1 ± 0.29
[2]; 298.15 K, x2 = 0.597
  relative permittivity: 15.73 ± 0.32
[2]; 298.15 K, x2 = 0.6609
  relative permittivity: 18.05 ± 0.37
[2]; 298.15 K, x2 = 0.6986
  relative permittivity: 19.34 ± 0.39
[2]; 298.15 K, x2 = 0.746
  relative permittivity: 21.14 ± 0.43
[2]; 298.15 K, x2 = 0.7997
  relative permittivity: 23.16 ± 0.47
[2]; 298.15 K, x2 = 0.8572
  relative permittivity: 25.55 ± 0.52
[2]; 298.15 K, x2 = 0.8985
  relative permittivity: 27.5 ± 0.56
[2]; 298.15 K, x2 = 0.949
  relative permittivity: 29.87 ± 0.6
[2]; 303.15 K, x2 = 0
  relative permittivity: 4.47 ± 0.09
[2]; 303.15 K, x2 = 0.0702
  relative permittivity: 5.13 ± 0.1
[2]; 303.15 K, x2 = 0.1177
  relative permittivity: 5.63 ± 0.11
[2]; 303.15 K, x2 = 0.2006
  relative permittivity: 6.68 ± 0.14
[2]; 303.15 K, x2 = 0.3049
  relative permittivity: 8.32 ± 0.17
[2]; 303.15 K, x2 = 0.4041
  relative permittivity: 10.29 ± 0.21
[2]; 303.15 K, x2 = 0.4986
  relative permittivity: 12.47 ± 0.25
[2]; 303.15 K, x2 = 0.5392
  relative permittivity: 13.66 ± 0.28
[2]; 303.15 K, x2 = 0.597
  relative permittivity: 15.28 ± 0.31
[2]; 303.15 K, x2 = 0.6609
  relative permittivity: 17.5 ± 0.35
[2]; 303.15 K, x2 = 0.6986
  relative permittivity: 18.73 ± 0.38
[2]; 303.15 K, x2 = 0.746
  relative permittivity: 20.47 ± 0.41
[2]; 303.15 K, x2 = 0.7997
  relative permittivity: 22.46 ± 0.45
[2]; 303.15 K, x2 = 0.8535
  relative permittivity: 24.61 ± 0.5
[2]; 303.15 K, x2 = 0.8985
  relative permittivity: 26.7 ± 0.54
[2]; 303.15 K, x2 = 0.949
  relative permittivity: 28.96 ± 0.58
